We go through four compounds from US10604554B2, “Double-acylated GLP-1 derivatives” (Novo Nordisk A/S, priority 2012, dated 2020).

Each structure is given as a SMILES string. Like-named read-outs stand apart in the source and are kept apart here.

In experiment [1] the target is T1, human GLP-1 receptor (Homo sapiens, UniProt P43220).
T1 construct: expressed in transfected cells; host or cells: BHK cells, clone FCW467-12A/KZ10-1 (parent line BHKTS13), further transfected with CRE luciferase
As to the kind of experiment: In vitro potency (CRE luciferase; whole cells). The note with it: for EC50: BHK cells; for EC50/pM (ratio 1% HSA/0% HSA): ratio of EC50 at 1% HSA to EC50 at 0% HSA. On the set-up: EC50/pM (ratio 1% HSA/0% HSA): unit not given here. The experiment is classed as cell-based. The gist of the method:
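Reporter: CRE-luciferase in BHK cells stably expressing human GLP-1R, 5×10^3 cells/well; compounds tested in buffer containing 0% or 1% HSA.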

In experiment [2] the target is T1, human GLP-1 receptor. Nature of the experiment: GLP-1 receptor binding (SPA, displacement of 125I-GLP-1). The note with it: for IC50 (high HSA): heading: Receptor binding affinity IC50. The gist of the method: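 Tracer [125I]-GLP-1(7-36)NH2 at 0.06 nM final competed on hamster stably transfected cell membranes captured by WGA SPA beads; 120 min, 30 °C, scintillation count.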
In general terms: Loss of bound radioactivity is the signal in a displacement assay; it reports binding, not function.

Setting [3] is: In vitro potency (CRE luciferase) EC50 (1% HSA), 1% HSA.
Where [4] appears, read: Receptor binding affinity IC50 (high HSA), 2.0% HSA (high albumin).
The mark [5] stands for this setting: 0% HSA, read-out: In vitro potency (CRE luciferase) EC50 (0% HSA).
Setting [6] is: 0.001% HSA (low albumin), read-out: Receptor binding affinity IC50 (low HSA).

T1 sequence (P43220 24-463): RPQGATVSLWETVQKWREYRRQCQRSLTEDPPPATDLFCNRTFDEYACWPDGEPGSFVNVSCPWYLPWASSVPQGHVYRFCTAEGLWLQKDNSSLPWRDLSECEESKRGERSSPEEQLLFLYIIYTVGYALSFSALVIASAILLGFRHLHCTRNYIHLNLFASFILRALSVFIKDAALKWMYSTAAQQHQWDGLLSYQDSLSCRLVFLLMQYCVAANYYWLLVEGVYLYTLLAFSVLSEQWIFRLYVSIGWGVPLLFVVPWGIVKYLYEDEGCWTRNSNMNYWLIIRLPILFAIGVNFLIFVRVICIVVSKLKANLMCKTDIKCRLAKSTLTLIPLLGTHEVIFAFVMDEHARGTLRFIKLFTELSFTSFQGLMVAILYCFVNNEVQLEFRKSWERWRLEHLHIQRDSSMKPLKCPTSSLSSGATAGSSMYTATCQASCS

With `CC[C@H](C)[C@H](NC(=O)[C@H](Cc1ccccc1)NC(=O)[C@H](CCC(=O)O)NC(=O)[C@H](CCCCNC(=O)[C@@H](N)CCCCNC(=O)[C@@H](N)CCCCNC(=O)CC[C@H](NC(=O)CCCCCCCCCCCOc1ccc(C(=O)O)cc1)C(=O)O)NC(=O)[C@H](C)NC(=O)[C@H](C)NC(=O)[C@H](CCC(N)=O)NC(=O)CNC(=O)[C@H](CCC(=O)O)NC(=O)[C@H](CC(C)C)NC(=O)[C@H](Cc1ccc(O)cc1)NC(=O)[C@H](CO)NC(=O)[C@H](CO)NC(=O)[C@@H](NC(=O)[C@H](CC(=O)O)NC(=O)[C@H](CO)NC(=O)[C@@H](NC(=O)[C@H](Cc1ccccc1)NC(=O)[C@@H](NC(=O)CNC(=O)[C@H](CCC(=O)O)NC(=O)C(C)(C)NC(=O)[C@@H](N)Cc1c[nH]cn1)[C@@H](C)O)[C@@H](C)O)C(C)C)C(=O)N[C@@H](C)C(=O)N[C@@H](Cc1c[nH]c2ccccc12)C(=O)N[C@@H](CC(C)C)C(=O)N[C@H](C(=O)N[C@@H](CCCNC(=N)N)C(=O)NCC(=O)N[C@@H](CCCNC(=N)N)C(=O)N[C@@H](CCCCNC(=O)[C@@H](N)CCCCNC(=O)[C@@H](N)CCCCNC(=O)CC[C@H](NC(=O)CCCCCCCCCCCOc1ccc(C(=O)O)cc1)C(=O)O)C(=O)O)C(C)C` [Example 7, N^ε26-[(2S)-2-amino-6-[[(2S)-2-amino-6-[[(4S)-4-carboxy-4-[12-(4-carboxyphenoxy)dodecanoylamino]butanoyl]amino]hexanoyl]amino]hexanoyl], N^ε37-[(2S)-2-amino-6-[[(2S)-2-amino-6-[[(4S)-4-carboxy-4-[12-(4-carboxyphenoxy)dodecanoylamino]butanoyl]amino]hexanoyl]amino]hexanoyl]-[Aib^8,Arg^34,Lys^37]-GLP-1-(7-37)-peptide], the EC50 (in general, the concentration giving half of the maximal effect) on human GLP-1 receptor [1] (setting [3]) was determined as 0.096 nM. Besides, the IC50 – broadly, the point on the concentration scale where inhibition reaches its midpoint – at human GLP-1 receptor [2] (setting [4]) came to 106 nM; at human GLP-1 receptor [2] (Receptor binding affinity IC50 (low HSA), 0.001% HSA (low albumin)), 0.13 nM.

Take `CC[C@H](C)[C@H](NC(=O)[C@H](Cc1ccccc1)NC(=O)[C@H](CCC(=O)O)NC(=O)[C@H](CCCCNC(=O)[C@@H](N)CCCCNC(=O)COCCOCCNC(=O)COCCOCCNC(=O)CC[C@H](NC(=O)CCCCCCCCCCCCCCC(=O)O)C(=O)O)NC(=O)[C@H](C)NC(=O)[C@H](C)NC(=O)[C@H](CCC(N)=O)NC(=O)CNC(=O)[C@H](CCC(=O)O)NC(=O)[C@H](CC(C)C)NC(=O)[C@H](Cc1ccc(O)cc1)NC(=O)[C@H](CO)NC(=O)[C@H](CO)NC(=O)[C@@H](NC(=O)[C@H](CC(=O)O)NC(=O)[C@H](CO)NC(=O)[C@@H](NC(=O)[C@H](Cc1ccccc1)NC(=O)[C@@H](NC(=O)CNC(=O)[C@H](CCC(=O)O)NC(=O)C(C)(C)NC(=O)[C@@H](N)Cc1c[nH]cn1)[C@@H](C)O)[C@@H](C)O)C(C)C)C(=O)N[C@@H](C)C(=O)N[C@@H](Cc1c[nH]c2ccccc12)C(=O)N[C@@H](CC(C)C)C(=O)N[C@H](C(=O)N[C@@H](CCCNC(=N)N)C(=O)NCC(=O)N[C@@H](CCCNC(=N)N)C(=O)N[C@@H](CCCCNC(=O)[C@@H](N)CCCCNC(=O)COCCOCCNC(=O)COCCOCCNC(=O)CC[C@H](NC(=O)CCCCCCCCCCCCCCC(=O)O)C(=O)O)C(=O)O)C(C)C` [Example 10, N^ε26-[(2S)-2-amino-6-[[2-[2-[2-[[2-[2-[2-[[(4S)-4-carboxy-4-(15-carboxypentadecanoylamino)butanoyl]amino]ethoxy]ethoxy]acetyl]amino]ethoxy]ethoxy]acetyl]amino]hexanoyl], N^ε37-[(2S)-2-amino-6-[[2-[2-[2-[[2-[2-[2-[[(4S)-4-carboxy-4-(15-carboxypentadecanoylamino)butanoyl]amino]ethoxy]ethoxy]acetyl]amino]ethoxy]ethoxy]acetyl]amino]hexanoyl]-[Aib^8,Arg^34,Lys^37]-GLP-1-(7-37)-peptide]: the results for the EC50 on human GLP-1 receptor [1] (setting [5]) and at human GLP-1 receptor [1] (setting [3]) were 0.008 nM and 3.63 nM, respectively. In addition, at human GLP-1 receptor [2] (setting [6]), the IC50 turned out to be 0.84 nM.

For the compound `CC[C@H](C)[C@H](NC(=O)[C@H](Cc1ccccc1)NC(=O)[C@H](CCC(=O)O)NC(=O)[C@H](CCCCNC(=O)[C@@H](N)CCCCNC(=O)[C@@H](N)CCCCNC(=O)CC[C@H](NC(=O)CC[C@H](NC(=O)CCCCCCCCCCCCCCC(=O)O)C(=O)O)C(=O)O)NC(=O)[C@H](C)NC(=O)[C@H](C)NC(=O)[C@H](CCC(N)=O)NC(=O)CNC(=O)[C@H](CCC(=O)O)NC(=O)[C@H](CC(C)C)NC(=O)[C@H](Cc1ccc(O)cc1)NC(=O)[C@H](CO)NC(=O)[C@H](CO)NC(=O)[C@@H](NC(=O)[C@H](CC(=O)O)NC(=O)[C@H](CO)NC(=O)[C@@H](NC(=O)[C@H](Cc1ccccc1)NC(=O)[C@@H](NC(=O)CNC(=O)[C@H](CCC(=O)O)NC(=O)C(C)(C)NC(=O)[C@@H](N)Cc1c[nH]cn1)[C@@H](C)O)[C@@H](C)O)C(C)C)C(=O)N[C@@H](C)C(=O)N[C@@H](Cc1c[nH]c2ccccc12)C(=O)N[C@@H](CC(C)C)C(=O)N[C@H](C(=O)N[C@@H](CCCNC(=N)N)C(=O)NCC(=O)N[C@@H](CCCNC(=N)N)C(=O)N[C@@H](CCCCNC(=O)[C@@H](N)CCCCNC(=O)[C@@H](N)CCCCNC(=O)CC[C@H](NC(=O)CC[C@H](NC(=O)CCCCCCCCCCCCCCC(=O)O)C(=O)O)C(=O)O)C(=O)O)C(C)C` [Example 12, N^ε26-[(2S)-2-amino-6-[[(2S)-2-amino-6-[[(4S)-4-carboxy-4-[[(4S)-4-carboxy-4-(15-carboxypentadecanoylamino)butanoyl]amino]butanoyl]amino]hexanoyl]amino]hexanoyl], N^ε37-[(2S)-2-amino-6-[[(2S)-2-amino-6-[[(4S)-4-carboxy-4-[[(4S)-4-carboxy-4-(15-carboxypentadecanoylamino)butanoyl]amino]butanoyl]amino]hexanoyl]amino]hexanoyl]-[Aib^8,Arg^34, Lys^37]-GLP-1-(7-37)-peptide], the EC50 was determined as 0.0055 nM at human GLP-1 receptor [1] (setting [5]) and 1.15 nM on human GLP-1 receptor [1] (setting [3]). Besides, the “EC50/pM (ratio 1% HSA/0% HSA)” value at human GLP-1 receptor [1] turned out to be 194. Further, the IC50 on human GLP-1 receptor [2] (setting [6]) was determined as 0.33 nM. On human GLP-1 receptor [2] (setting [4]), this compound displayed an IC50 (high HSA) of 222 nM.

Regarding `CC[C@H](C)[C@H](NC(=O)[C@H](Cc1ccccc1)NC(=O)[C@H](CCC(=O)O)NC(=O)[C@H](CCCCNC(=O)[C@@H](N)CCCCNC(=O)CC[C@H](NC(=O)CC[C@H](NC(=O)CC[C@H](NC(=O)CCCCCCCCCCCCCCC(=O)O)C(=O)O)C(=O)O)C(=O)O)NC(=O)[C@H](C)NC(=O)[C@H](C)NC(=O)[C@H](CCC(N)=O)NC(=O)CNC(=O)[C@H](CCC(=O)O)NC(=O)[C@H](CC(C)C)NC(=O)[C@H](Cc1ccc(O)cc1)NC(=O)[C@H](CO)NC(=O)[C@H](CO)NC(=O)[C@@H](NC(=O)[C@H](CC(=O)O)NC(=O)[C@H](CO)NC(=O)[C@@H](NC(=O)[C@H](Cc1ccccc1)NC(=O)[C@@H](NC(=O)CNC(=O)[C@H](CCC(=O)O)NC(=O)C(C)(C)NC(=O)[C@@H](N)Cc1c[nH]cn1)[C@@H](C)O)[C@@H](C)O)C(C)C)C(=O)N[C@@H](C)C(=O)N[C@@H](Cc1c[nH]c2ccccc12)C(=O)N[C@@H](CC(C)C)C(=O)N[C@H](C(=O)N[C@@H](CCCNC(=N)N)C(=O)NCC(=O)N[C@@H](CCCNC(=N)N)C(=O)N[C@@H](CCCCNC(=O)[C@@H](N)CCCCNC(=O)CC[C@H](NC(=O)CC[C@H](NC(=O)CC[C@H](NC(=O)CCCCCCCCCCCCCCC(=O)O)C(=O)O)C(=O)O)C(=O)O)C(=O)O)C(C)C` [Example 13, N^ε26-[(2S)-2-amino-6-[[(4S)-4-carboxy-4-[[(4S)-4-carboxy-4-[[(4S)-4-carboxy-4-(15-carboxypentadecanoylamino)butanoyl]amino]butanoyl]amino]butanoyl]amino]hexanoyl], N^ε37-[(2S)-2-amino-6-[[(4S)-4-carboxy-4-[[(4S)-4-carboxy-4-[[(4S)-4-carboxy-4-(15-carboxypentadecanoylamino)butanoyl]amino]butanoyl]amino]butanoyl]amino]hexanoyl]-[Aib^8,Arg^34,Lys^37]-GLP-1-(7-37)-peptide], the EC50 on human GLP-1 receptor [1] (setting [5]) stood at 0.0022 nM; on human GLP-1 receptor [1] (setting [3]) it was 1.38 nM. Also, the “EC50/pM (ratio 1% HSA/0% HSA)” value at human GLP-1 receptor [1] stood at 659. Besides, on human GLP-1 receptor [2] (setting [6]), the IC50 amounted to 0.76 nM. The compound also came in with an IC50 (high HSA) at human GLP-1 receptor [2] (setting [4]) of 545 nM.
